# What was measured:
# mTOR kinase = target: T1, mTOR kinase (Homo sapiens, UniProt P42345); experiment: mTOR kinase TR-FRET assay; assay type: biochemical; settings: read-out: mTO R
# T1 construct: purchased Millipore, USA
# Procedure, shortened: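 Compounds preincubated 60 min with mTOR (5 ng) in HEPES pH 7.5, EGTA, MnCl2; ULight-p70 S6K Thr389 peptide (50 nM) and ATP (20 μM) then added, 60 min at room temperature. EDTA-stopped, Eu-anti-phospho antibody detection by TR-FRET (665/615 nm); IC50 from variable-slope sigmoidal fit.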
# PC3 cells = experiment: XTT assay for cell viability, PC3 cells; assay type: cell-based, human; settings: Homo sapiens, PC-3, cell viability
# Procedure, shortened: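 PC3 cells seeded at 1000 cells/well, grown 24 h, then exposed to serial dilutions of compound for 96 h. Viability read by XTT dye at 37° C, absorbance 465 nm. EC50 from sigmoidal dose-response fit.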
# [1] = system: pAKT(T308) (phosphorylated at threonine 308), PC3 cells; experiment: In-cell Western assay, pAKT(T308) in PC3 cells; assay type: cell-based; settings: Homo sapiens, PC-3, In-cell Western
# Protocol: (§1) Cells from human prostate cancer cell line PC3 (American Type Culture Collection (ATCC), Manassas, Va. 20108 USA) were seeded at an optimal density of 22,000 cell/well in 96-well plates containing Ham's F12K medium (90 μL) and incubated overnight. The compound dilutions were carried out in 100% DMSO followed by a dilution in the medium. Test compounds were added in serial dilutions to the wells and incubated for 2 h. The cells were washed and fixed with 4% paraformaldehyde. After incubation at room temperature for 1 h in the dark, blocking was done for 2 h at room temperature. Primary antibodies for phosphorylated (p) AKT(5473) (phosphorylated at serine 473), pAKT(T308) (phosphorylated at threonine 308) and for pS6RP(S235/236) (phosphorylated at serine 235/236) (commercially available from Cell Signaling Technology®, whose protocol was followed for the in-cell western assay, were diluted to the required concentration and added to the corresponding wells followed by overnight incubation at 4° C. Eu-labeled rabbit (PE) (Perkin-Elmer USA catalog #AD0106) secondary antibody was added and incubated for 2 h at room temperature. Delfia® enhancement solution (cat #1244-105, Perkin Elmer USA) was subsequently added to the plate before taking the reading at 615 nm with excitation wavelength of 340 nm, after which 0.5 μg/mL of Hoechst® 33258 dye (Catalog #86140-5, Sigma) was added to the plate and fluorescence emission was read at 460 nm with 355 nm excitation, to evaluate the correction factor. IC50 values were calculated using a sigmoidal dose-response curve fit in GraphPad Prism® v5 software.
# [2] = system: pAKT(5473) (phosphorylated at serine 473), PC3 cells; experiment: In-cell Western assay, pAKT(5473) in PC3 cells; assay type: cell-based; settings: Homo sapiens, PC-3, In-cell Western, read-out: pAkt-S473
# Protocol: as §1
# [3] = system: pS6RP(S235/236), PC3 cells; experiment: In-cell Western assay, pS6RP(S235/236) in PC3 cells; assay type: cell-based, human; settings: Homo sapiens, PC-3, In-cell Western
# Procedure, shortened: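 Overnight-seeded PC3 cells were treated 2 h with serially diluted compound, then fixed and immunostained with phospho-specific primary antibodies and Eu-labelled secondary. Time-resolved Eu signal read at 615 nm (ex 340 nm), normalised by Hoechst 33258 staining (ex 355/em 460 nm); IC50 from sigmoidal dose-response fit.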
# [4] = target: T2, PI3Kα (wild-type), P110/P85α (Homo sapiens, UniProt P42336); experiment: PI3 Kinase TR-FRET assay, PI3Kα (wild-type); assay type: biochemical
# T2 construct: made in house; host or cells: SF9 insect cells
# T2 sequence (P42336 whole entry): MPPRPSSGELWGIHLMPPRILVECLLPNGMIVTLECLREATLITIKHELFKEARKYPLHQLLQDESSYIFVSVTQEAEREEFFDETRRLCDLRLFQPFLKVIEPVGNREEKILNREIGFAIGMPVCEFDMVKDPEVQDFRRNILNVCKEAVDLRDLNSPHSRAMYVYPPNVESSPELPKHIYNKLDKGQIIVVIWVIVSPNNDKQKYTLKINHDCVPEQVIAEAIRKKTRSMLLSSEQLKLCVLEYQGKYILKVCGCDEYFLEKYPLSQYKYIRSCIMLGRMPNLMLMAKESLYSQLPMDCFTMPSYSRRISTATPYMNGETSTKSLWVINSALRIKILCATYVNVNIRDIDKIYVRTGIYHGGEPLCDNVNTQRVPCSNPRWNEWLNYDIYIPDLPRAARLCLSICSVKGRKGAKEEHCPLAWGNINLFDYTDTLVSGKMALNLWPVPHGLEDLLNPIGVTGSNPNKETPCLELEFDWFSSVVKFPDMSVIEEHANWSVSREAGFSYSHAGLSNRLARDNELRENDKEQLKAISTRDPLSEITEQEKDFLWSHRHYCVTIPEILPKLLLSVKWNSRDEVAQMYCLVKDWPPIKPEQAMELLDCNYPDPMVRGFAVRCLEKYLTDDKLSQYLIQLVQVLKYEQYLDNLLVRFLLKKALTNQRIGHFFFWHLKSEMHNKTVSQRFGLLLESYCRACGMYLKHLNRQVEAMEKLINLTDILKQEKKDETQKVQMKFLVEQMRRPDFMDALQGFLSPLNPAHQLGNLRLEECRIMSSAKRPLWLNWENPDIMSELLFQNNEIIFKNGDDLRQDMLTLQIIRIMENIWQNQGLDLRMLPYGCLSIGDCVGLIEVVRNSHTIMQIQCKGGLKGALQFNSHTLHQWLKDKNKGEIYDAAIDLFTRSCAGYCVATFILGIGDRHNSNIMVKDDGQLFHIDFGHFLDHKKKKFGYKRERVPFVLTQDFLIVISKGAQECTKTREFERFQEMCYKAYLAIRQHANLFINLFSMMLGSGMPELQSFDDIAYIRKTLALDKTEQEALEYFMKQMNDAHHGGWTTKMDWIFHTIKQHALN
# T2 sequence (P27986 whole entry partner): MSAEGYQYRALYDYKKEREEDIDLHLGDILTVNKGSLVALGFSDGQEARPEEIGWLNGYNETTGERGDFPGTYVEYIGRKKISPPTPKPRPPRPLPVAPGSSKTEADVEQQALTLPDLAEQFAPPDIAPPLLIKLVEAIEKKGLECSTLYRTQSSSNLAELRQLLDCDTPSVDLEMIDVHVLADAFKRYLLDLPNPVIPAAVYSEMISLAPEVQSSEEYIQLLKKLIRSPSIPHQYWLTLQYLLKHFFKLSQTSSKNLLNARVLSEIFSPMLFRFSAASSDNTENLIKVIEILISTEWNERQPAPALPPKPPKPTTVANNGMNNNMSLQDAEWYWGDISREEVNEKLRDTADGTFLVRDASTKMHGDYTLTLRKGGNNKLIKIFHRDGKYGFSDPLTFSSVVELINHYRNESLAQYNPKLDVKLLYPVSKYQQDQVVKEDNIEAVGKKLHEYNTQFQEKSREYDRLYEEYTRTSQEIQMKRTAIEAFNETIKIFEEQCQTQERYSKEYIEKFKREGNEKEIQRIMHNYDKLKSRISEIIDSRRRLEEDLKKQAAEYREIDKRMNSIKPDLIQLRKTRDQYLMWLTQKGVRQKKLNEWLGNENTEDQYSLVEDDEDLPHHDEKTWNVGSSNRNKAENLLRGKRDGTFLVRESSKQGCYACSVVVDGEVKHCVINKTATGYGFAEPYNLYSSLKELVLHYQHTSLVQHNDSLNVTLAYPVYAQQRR
# Procedure, shortened: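 Sf9-expressed His-purified P110/P85α (5 ng) preincubated 60 min RT with compound and PIP2 in buffer with 40 mM MgCl2, 5 mM DTT; reaction started with ATP (PIP2 and ATP both 10 μM), 30 min RT. PIP3 detected by TR-FRET displacement, 665/615 nm ratio; IC50 from dose-response curves.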
SMILES,IC50 (mTOR kinase) [nM],IC50 (PC3 cells) [nM],IC50 [1] [nM],IC50 [2] [nM],IC50 [3] [nM],IC50 [4] [nM]
"CN(C)C(=O)c1ccc(NC(=O)Nc2ccc(-c3nc(N4CCOCC4)c4cc(F)c(-c5cnn(C)c5)cc4n3)cc2)cc1 [Example 35, 4-(3-{4-[6-Fluoro-7-(1-methyl-1H-pyrazol-4-yl)-4-morpholin-4-yl-quinazolin-2-yl]-phenyl}-ureido)-N,N-dimethyl-benzamide]",< 50,< 100,100 to 500,100 to 500,< 100,< 50
"CN(C)C(=O)c1ccc(NC(=O)Nc2ccc(-c3nc(N4CCOCC4)c4ncc(-c5cnn(C)c5)cc4n3)cc2)cc1 [Example 42, N,N-dimethyl-4-(3-{4-[7-(1-methyl-1H-pyrazol-4-yl)-4-morpholin-4-yl-pyrido[3,2-d]pyrimidin-2-yl]-phenyl}-ureido)-benzamide]",< 50,< 100,100 to 500,< 100,100 to 500,< 50
"CN(C)CCN(C)C(=O)c1ccc(NC(=O)Nc2ccc(-c3nc(N4CCOCC4)c4ccc(-c5cncnc5)cc4n3)cc2)cc1 [Example 44, N-(2-dimethylamino-ethyl)-N-methyl-4-{3-[4-(4-morpholin-4-yl-7-pyrimidin-5-yl-quinazolin-2-yl)-phenyl]-ureido}-benzamide]",< 50,< 100,< 100,< 100,< 100,< 50
"CN(C)C(=O)c1ccc(NC(=O)Nc2ccc(-c3nc(N4CCOCC4)c4ncc(-c5cccnc5)cc4n3)cc2)cc1 [Example 46, N,N-dimethyl-4-{3-[4-(4-morpholin-4-yl-7-pyridin-3-yl-pyrido[3,2-d]pyrimidin-2-yl)-phenyl]-ureido}-benzamide]",< 50,< 100,100 to 500,< 100,< 100,< 50

# The next lines start with the values.
IC50 (mTOR kinase) [nM],IC50 (PC3 cells) [nM],IC50 [1] [nM],IC50 [2] [nM],IC50 [3] [nM],IC50 [4] [nM],SMILES
< 50,< 100,100 to 500,100 to 500,< 100,< 50,"CN(C)C(=O)c1ccc(NC(=O)Nc2ccc(-c3nc(N4CCOCC4)c4ccc(-c5cccc(S(C)(=O)=O)c5)cc4n3)cc2)cc1 [Example 19, 4-(3-{4-[7-(3-methanesulfonyl-phenyl)-4-morpholin-4-yl-quinazolin-2-yl]-phenyl}-ureido)-N,N-dimethyl-benzamide]"
< 50,100 to 500,100 to 500,100 to 500,100 to 500,< 50,"CNC(=O)c1ccc(NC(=O)Nc2ccc(-c3nc(N4CCOCC4)c4ccc(-c5cccc(S(C)(=O)=O)c5)cc4n3)cc2)cc1 [Example 20, 4-(3-{4-[7-(3-methanesulfonyl-phenyl)-4-morpholin-4-yl-quinazolin-2-yl]-phenyl}-ureido)-N-methyl-benzamide]"
< 50,< 100,100 to 500,100 to 500,< 100,< 50,"CN(C)C(=O)c1ccc(NC(=O)Nc2ccc(-c3nc(N4CCOCC4)c4ccc(-c5cnn(C)c5)cc4n3)cc2)cc1 [Example 22, N,N-dimethyl-4-(3-{4-[7-(1-methyl-1H-pyrazol-4-yl)-4-morpholin-4-yl-quinazolin-2-yl]-phenyl}-ureido)-benzamide]"
< 50,< 100,100 to 500,100 to 500,< 100,< 50,"CN(C)C(=O)c1ccc(NC(=O)Nc2ccc(-c3nc(N4CCOCC4)c4ccc(-c5cccnc5)cc4n3)cc2)cc1 [Example 24, N,N-dimethyl-4-{3-[4-(4-morpholin-4-yl-7-pyridin-3-yl-quinazolin-2-yl)-phenyl]-ureido}-benzamide]"
< 50,< 100,100 to 500,100 to 500,< 100,< 50,"CN1CCN(C(=O)c2ccc(NC(=O)Nc3ccc(-c4nc(N5CCOCC5)c5ccc(-c6cccnc6)cc5n4)cc3)cc2)CC1 [Example 33, 1-[4-(4-methyl-piperazine-1-carbonyl)-phenyl]-3-[4-(4-morpholin-4-yl-7-pyridin-3-yl-quinazolin-2-yl)-phenyl]-urea]"
